Results from patent US20240059671A1, “TYROSINE KINASE 2 (TYK2) DEGRADATION COMPOUNDS AND METHODS OF USE” (CULLGEN (SHANGHAI), INC., priority 2020, published 2024).

Molecular target: TYK2 (Homo sapiens, UniProt P29597)
Assay: TYK2 protein degradation in MOLT-4 cells by immunoblotting
Assay type: cell-based
Design: endogenous in cells; host or cells: MOLT-4
Settings: MOLT-4 cells, 24 hours
How it was run: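 Percent TYK2 degradation came from densitometry of chemiluminescent immunoblots of RIPA lysates. Before lysis, MOLT-4 cells had been treated for 24 h with each compound at 0.5 or 5 μM.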

TYK2, sequence (P29597 whole entry): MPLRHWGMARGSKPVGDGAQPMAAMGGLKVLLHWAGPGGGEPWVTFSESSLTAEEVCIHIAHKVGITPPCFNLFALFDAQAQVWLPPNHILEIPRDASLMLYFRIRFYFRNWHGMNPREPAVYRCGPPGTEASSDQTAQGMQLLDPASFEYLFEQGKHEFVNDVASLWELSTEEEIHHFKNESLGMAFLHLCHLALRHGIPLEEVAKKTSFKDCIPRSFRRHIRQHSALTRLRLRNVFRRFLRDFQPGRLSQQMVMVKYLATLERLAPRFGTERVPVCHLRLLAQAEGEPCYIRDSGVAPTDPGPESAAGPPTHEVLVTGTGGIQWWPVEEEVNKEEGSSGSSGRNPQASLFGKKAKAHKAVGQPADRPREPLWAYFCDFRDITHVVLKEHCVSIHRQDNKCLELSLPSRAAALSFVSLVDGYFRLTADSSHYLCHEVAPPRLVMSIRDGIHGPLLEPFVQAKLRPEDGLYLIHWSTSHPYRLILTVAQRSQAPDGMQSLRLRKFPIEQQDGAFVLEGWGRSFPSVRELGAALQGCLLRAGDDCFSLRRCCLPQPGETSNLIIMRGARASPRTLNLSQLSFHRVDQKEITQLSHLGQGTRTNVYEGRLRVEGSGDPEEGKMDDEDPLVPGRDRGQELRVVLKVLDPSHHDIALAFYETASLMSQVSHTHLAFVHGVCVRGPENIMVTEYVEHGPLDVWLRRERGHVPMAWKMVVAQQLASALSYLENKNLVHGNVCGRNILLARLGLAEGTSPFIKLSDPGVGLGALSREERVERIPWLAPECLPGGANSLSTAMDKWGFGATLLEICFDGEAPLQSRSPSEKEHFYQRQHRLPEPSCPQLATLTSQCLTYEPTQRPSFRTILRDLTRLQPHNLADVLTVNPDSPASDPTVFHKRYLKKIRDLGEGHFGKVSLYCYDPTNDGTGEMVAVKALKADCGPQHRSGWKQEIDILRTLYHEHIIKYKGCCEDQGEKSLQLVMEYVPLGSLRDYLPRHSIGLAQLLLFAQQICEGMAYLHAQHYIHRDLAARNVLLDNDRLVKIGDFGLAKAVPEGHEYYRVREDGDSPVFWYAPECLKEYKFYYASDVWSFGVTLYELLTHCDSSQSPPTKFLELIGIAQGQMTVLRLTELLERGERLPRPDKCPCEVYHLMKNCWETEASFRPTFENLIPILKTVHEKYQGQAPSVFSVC

Row | TYK2 Degradation (MOLT-4, 0.5 μM) | TYK2 Degradation (MOLT-4, 5 μM) | Compound
1 | C (C: ≤20% TYK2 degradation) | C (C: ≤20% TYK2 degradation) | CNC(=O)c1nnc(NC(=O)CNC(=O)CCOc2cc(-c3scnc3C)ccc2CNC(=O)[C@@H]2C[C@@H](O)CN2C(=O)[C@@H](NC(=O)C2(F)CC2)C(C)(C)C)cc1Nc1cccc(-c2ncn(C)n2)c1OC [CPD-102, 6-(2-(3-(2-(((2S,4R)-1-((S)-2-(1-Fluorocyclopropane-1-carboxamido)-3,3-dimethylbutanoyl)-4-hydroxypyrrolidine-2-carboxamido)methyl)-5-(4-methylthiazol-5-yl)phenoxy)propanamido)acetamido)-4-((2-methoxy-3-(1-methyl-1H-1,2,4-triazol-3-yl)phenyl)amino)-N-methylpyridazine-3-carboxamide]
2 | C (C: ≤20% TYK2 degradation) | C (C: ≤20% TYK2 degradation) | CNC(=O)c1nnc(NC(=O)CNC(=O)CCCOc2cc(-c3scnc3C)ccc2CNC(=O)[C@@H]2C[C@@H](O)CN2C(=O)[C@@H](NC(=O)C2(F)CC2)C(C)(C)C)cc1Nc1cccc(-c2ncn(C)n2)c1OC [CPD-103, 6-(2-(4-(2-(((2S,4R)-1-((S)-2-(1-Fluorocyclopropane-1-carboxamido)-3,3-dimethylbutanoyl)-4-hydroxypyrrolidine-2-carboxamido)methyl)-5-(4-methylthiazol-5-yl)phenoxy)butanamido)acetamido)-4-((2-methoxy-3-(1-methyl-1H-1,2,4-triazol-3-yl)phenyl)amino)-N-methylpyridazine-3-carboxamide]
3 | C (C: ≤20% TYK2 degradation) | C (C: ≤20% TYK2 degradation) | CNC(=O)c1nnc(NC(=O)CNC(=O)CCCCOc2cc(-c3scnc3C)ccc2CNC(=O)[C@@H]2C[C@@H](O)CN2C(=O)[C@@H](NC(=O)C2(F)CC2)C(C)(C)C)cc1Nc1cccc(-c2ncn(C)n2)c1OC [CPD-104, 6-(2-(5-(2-(((2S,4R)-1-((S)-2-(1-Fluorocyclopropane-1-carboxamido)-3,3-dimethylbutanoyl)-4-hydroxypyrrolidine-2-carboxamido)methyl)-5-(4-methylthiazol-5-yl)phenoxy)pentanamido)acetamido)-4-((2-methoxy-3-(1-methyl-1H-1,2,4-triazol-3-yl)phenyl)amino)-N-methylpyridazine-3-carboxamide]
4 | C (C: ≤20% TYK2 degradation) | C (C: ≤20% TYK2 degradation) | CNC(=O)c1nnc(NC(=O)CNC(=O)CCCCCOc2cc(-c3scnc3C)ccc2CNC(=O)[C@@H]2C[C@@H](O)CN2C(=O)[C@@H](NC(=O)C2(F)CC2)C(C)(C)C)cc1Nc1cccc(-c2ncn(C)n2)c1OC [CPD-105, 6-(2-(6-(2-(((2S,4R)-1-((S)-2-(1-Fluorocyclopropane-1-carboxamido)-3,3-dimethylbutanoyl)-4-hydroxypyrrolidine-2-carboxamido)methyl)-5-(4-methylthiazol-5-yl)phenoxy)hexanamido)acetamido)-4-((2-methoxy-3-(1-methyl-1H-1,2,4-triazol-3-yl)phenyl)amino)-N-methylpyridazine-3-carboxamide]
5 | C (C: ≤20% TYK2 degradation) | C (C: ≤20% TYK2 degradation) | CNC(=O)c1nnc(NC(=O)CNC(=O)CCCCCCOc2cc(-c3scnc3C)ccc2CNC(=O)[C@@H]2C[C@@H](O)CN2C(=O)[C@@H](NC(=O)C2(F)CC2)C(C)(C)C)cc1Nc1cccc(-c2ncn(C)n2)c1OC [CPD-106, 6-(2-(7-(2-(((2S,4R)-1-((S)-2-(1-Fluorocyclopropane-1-carboxamido)-3,3-dimethylbutanoyl)-4-hydroxypyrrolidine-2-carboxamido)methyl)-5-(4-methylthiazol-5-yl)phenoxy)heptanamido)acetamido)-4-((2-methoxy-3-(1-methyl-1H-1,2,4-triazol-3-yl)phenyl)amino)-N-methylpyridazine-3-carboxamide]
